Columns and labels:
[1] = tested on: interferon-a (IFN-a); details: healthy volunteers; oral; cited from earlier work
[2] = tested on: HCV; details: chronically HCV infected patients; cited from earlier work
[3] = tested on: tetanus toxoid vaccine; experiment: Tetanus toxoid vaccine efficacy study (adjuvant) in mice; type: in vivo; details: compared to vehicle treated group
Experimental: Tetanus toxoid (TT) was used to vaccinate mice thrice, two weeks apart. Mice were treated by oral administration of compounds NTR001 and NTR002 and serum was collected at various time points for antibody titer and interferon-g analysis. Mice in Groups 2-6 (Table 2) are vaccinated subcutaneously with 0.1 ml tetanus toxoid vaccine on DAYS 0, 14 and 28. Mice in Group 1 (Table 1) received no vaccine. Antibody titers for DAYS 38 are determined by ELISA using tetanus toxoid coated microtiter plates and anti-mouse conjugate. Sera from DAY 30 are assayed by ELISA for interferon-g.

[4] = tested on: L. monocytogenes (ATCC Strain35152, hemolytic substrain); experiment: Mouse model of L. monocytogenes infection; type: in vivo; details: Balb/c mice infected i.v. with 1×10^6 CFU; treatments per Table 3; FIGS. 7 and 9
[5] = tested on: B16 tumors; experiment: Syngeneic mouse melanoma model; type: in vivo, C57BL/6 mice; details: cyclophosphamide 100 mg/kg IP single dose
Experimental: Cancer cells were injected subcutaneously in right flank of each mouse, 1×10^4 cells in 0.1 ml PBS with 20% Matrigel. Treatment with the NTR001 was initiated on day 6 after injection of tumor cells. Tumor volume and survival were recorded every 3-4 days.

[6] = target: T1, human TLR2 (Homo sapiens, UniProt O60603); experiment: TLR ligand screening, NF-κB SEAP reporter in HEK293 cells expressing TLR2; type: cell-based; details: one concentration: Guanosine 100 uM, NTR001 10 uM, Inosine 100 uM; FIG. 2
T1 construct: expressed in transfected cells; host or cells: HEK293
Experimental: (§1) TLR stimulation is tested by assessing NF-κB activation in HEK293 cells expressing a given TLR. The Secreted Embryonic Alkaline Phosphatase (SEAP) reporter is under the control of a promoter inducible by the transcription factor NF-κB. This reporter gene allows the monitoring of signaling through the TLR, based on the activation of NF-κB. The compounds are evaluated at one concentration and compared to control ligands. This step is performed in triplicate.

[7] = target: T2, human TLR4 (Homo sapiens, UniProt O00206); experiment: TLR ligand screening, NF-κB SEAP reporter in HEK293 cells expressing TLR4; type: cell-based; details: one concentration: Guanosine 100 uM, NTR001 10 uM, Inosine 100 uM; FIG. 2
T2 construct: expressed in transfected cells; host or cells: HEK293
Experimental: as §1

T2 sequence (O00206 24-839): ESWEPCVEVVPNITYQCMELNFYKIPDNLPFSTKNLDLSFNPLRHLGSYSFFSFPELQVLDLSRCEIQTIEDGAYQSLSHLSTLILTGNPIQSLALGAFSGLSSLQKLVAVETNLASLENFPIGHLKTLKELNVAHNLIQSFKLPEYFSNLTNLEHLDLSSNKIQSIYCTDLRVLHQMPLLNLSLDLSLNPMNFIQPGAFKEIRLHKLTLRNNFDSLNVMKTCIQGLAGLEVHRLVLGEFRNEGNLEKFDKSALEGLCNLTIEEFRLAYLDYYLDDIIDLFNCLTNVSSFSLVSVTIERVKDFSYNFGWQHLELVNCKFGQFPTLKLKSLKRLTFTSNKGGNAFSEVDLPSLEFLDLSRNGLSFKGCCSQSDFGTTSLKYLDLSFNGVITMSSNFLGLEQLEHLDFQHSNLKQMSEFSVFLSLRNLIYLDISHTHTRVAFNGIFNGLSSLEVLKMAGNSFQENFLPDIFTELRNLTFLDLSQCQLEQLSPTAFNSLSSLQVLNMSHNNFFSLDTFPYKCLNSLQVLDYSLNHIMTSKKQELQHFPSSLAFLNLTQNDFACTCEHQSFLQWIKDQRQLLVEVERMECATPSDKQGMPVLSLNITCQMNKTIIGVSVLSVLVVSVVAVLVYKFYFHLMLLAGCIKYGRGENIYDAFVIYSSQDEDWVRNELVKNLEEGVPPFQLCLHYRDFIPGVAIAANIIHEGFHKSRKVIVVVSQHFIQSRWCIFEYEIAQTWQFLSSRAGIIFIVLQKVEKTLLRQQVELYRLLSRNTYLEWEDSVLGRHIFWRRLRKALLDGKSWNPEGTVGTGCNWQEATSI
T2 sequence (Q9Y6Y9 17-160 partner limits assumed): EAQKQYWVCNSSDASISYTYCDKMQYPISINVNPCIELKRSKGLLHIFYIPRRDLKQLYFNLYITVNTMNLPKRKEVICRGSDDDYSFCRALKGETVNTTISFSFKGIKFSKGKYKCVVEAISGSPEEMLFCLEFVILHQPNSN
T1 sequence (O60603 21-784): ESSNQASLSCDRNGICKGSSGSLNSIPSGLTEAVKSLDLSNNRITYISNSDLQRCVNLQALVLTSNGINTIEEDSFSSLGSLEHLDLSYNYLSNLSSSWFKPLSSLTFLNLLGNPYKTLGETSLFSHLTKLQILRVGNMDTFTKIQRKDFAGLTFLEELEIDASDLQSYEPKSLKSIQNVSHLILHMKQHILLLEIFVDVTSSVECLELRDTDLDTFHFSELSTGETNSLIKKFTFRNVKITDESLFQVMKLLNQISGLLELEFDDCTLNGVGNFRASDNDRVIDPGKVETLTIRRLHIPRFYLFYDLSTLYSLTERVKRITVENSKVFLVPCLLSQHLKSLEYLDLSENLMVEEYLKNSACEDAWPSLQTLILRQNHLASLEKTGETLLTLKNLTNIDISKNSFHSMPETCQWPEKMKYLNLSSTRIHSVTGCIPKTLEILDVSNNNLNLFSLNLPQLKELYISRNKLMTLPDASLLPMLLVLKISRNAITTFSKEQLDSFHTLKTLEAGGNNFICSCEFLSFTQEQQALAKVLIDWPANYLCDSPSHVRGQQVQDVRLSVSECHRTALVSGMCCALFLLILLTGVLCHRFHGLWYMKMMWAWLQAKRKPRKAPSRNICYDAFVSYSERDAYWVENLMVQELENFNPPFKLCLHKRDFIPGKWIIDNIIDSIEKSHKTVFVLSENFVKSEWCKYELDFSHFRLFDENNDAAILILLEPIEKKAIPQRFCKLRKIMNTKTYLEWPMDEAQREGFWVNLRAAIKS

SMILES: CC(=O)O[C@@H]1C[C@@H](CO)O[C@H]1n1c(=O)sc2cnc(N)nc21 [ANA773]
- induction of endogenous interferon-a (IFN-a) [1]: induce endogenous interferon-a (IFN-a) of multiple subtypes
- HCV RNA [2]: dose-dependent reduction

SMILES: O=c1[nH]cnc2c(CN3C[C@H](CO)[C@@H](O)C3)c[nH]c12 [NTR002, 1,5-dihydro-7-[[(3R,4R)-3-hydroxy-4-(hydroxymethyl)pyrrolidin-1-yl]methyl]-4H-pyrrolo[3,2-d]pyrimidin-4-one]
- serum interferon-g ([3]; day 30, ELISA, high dose group 60 mg/kg p.o., FIG. 4): elevated
- serum tetanus toxoid antibody titers ([3]; day 38, ELISA, p.o. 30 mg/kg (6 days of treatment) and 60 mg/kg (3 days of treatment), FIG. 3): significantly elevated
- weight loss [4]: significant decrease

SMILES: O=P1(N(CCCl)CCCl)NCCCO1 (centres unmarked) [Cycicophosphamide, Cyclophosphamide]
- survival [5]: 30%

SMILES: Nc1nc2c(ncn2[C@@H]2O[C@H](CO)[C@@H](O)[C@H]2O)c(=O)[nH]1 [Guanosine]
- stimulatory effect on human TLR2 (NF-κB activation) [6]: significant stimulatory effect
- stimulatory effect on human TLR4 (NF-κB activation) [7]: significant stimulatory effect
